# US6458765B1, “Dolastatin 15 derivatives” (BASF Aktiengesellschaft, priority 1997, dated 2002)
# System: HT-29 colon carcinoma cells
# Type: cell-based
# Conditions: not given
row,Substance,IC50 [nM]
1,Xbo Val Xaa Pro Xbp [Compound 50],89
2,Xat Val Xaa Pro Xab [Compound 18],8.8
3,Xbe Val Xaa Pro Xab [Compound 33],1200
4,Xbi Val Xaa Pro Xcb [Compound 79],1700
5,Xbl Val Xaa Pro Xab [Compound 54],4.2
6,Xbl Val Xaa Pro Xab [Compound 55],56
7,Xba Val Xaa Pro Xcb [Compound 93],1800
8,Xar Val Xaa Pro Xab [Compound 15],170
9,Me2Aib-Val-MeVal-Pro-Pro-NHBn [Compound 3],35
10,Xbm Val Xaa Pro Xab [Compound 44],48
11,Xbz Val Xaa Pro Xab [Compound 68],420
12,Xbh Val Xaa Pro Xab [Compound 36],6.2
13,Xas Val Xaa Pro Xab [Compound 16],0.73
14,Xbo Val Xaa Pro Xbq [Compound 64],1700
15,Xbi Val Xaa Pro Xab [Compound 38],730
16,Xbg Val Xaa Pro Xab [Compound 35],140
17,Xba Val Xaa Pro Xbp [Compound 100],2300
18,Xau Val Xaa Pro Xab [Compound 76],0.23
19,Xbe Val Xaa Pro Xab [Compound 32],850
20,Xba Val Xaa Pro Xcd [Compound 104],3500
21,Xbo Val Xaa Pro Xbq [Compound 65],97
22,Xax Val Xaa Pro Xab [Compound 22],640
23,Xbo Val Xaa Pro Xbr [Compound 62],99

row,Substance,IC50 [nM]
1,[N-Methyl-D-piperidine-2-carbonyl]-Val-MeVal-Pro-Pro-NHBn [Compound 2],0.68
2,Xbd Val Xaa Pro Xab [Compound 31],200
3,Xaw Val Xaa Pro Xbn [Compound 45],56
4,Xbc Val Xaa Pro Xab [Compound 29],36
5,Xau Val Xaa Pro Xab [Compound 77],7.2
6,Xbi Val Xaa Pro Xcb [Compound 80],67
7,Xam Val Xaa Pro Xab [Compound 10],130
8,Xbl Val Xaa Pro Xab [Compound 42],340
9,Xau Val Xaa Pro Xbp [Compound 97],32
10,Xbh Val Xaa Pro Xab [Compound 37],190
11,Xbi Val Xaa Pro Xcc [Compound 81],130000
12,Xbw Val Xaa Pro Xab [Compound 58],63
13,Xbb Val Xaa Pro Xab [Compound 28],49
14,Xba Val Xaa Pro Xcc [Compound 102],120
15,Xbo Val Xaa Pro Xbx [Compound 72],120
16,Xbk Val Xaa Pro Xab [Compound 41],7300
17,Xay Val Xaa Pro Xab [Compound 24],28
18,Xbo Val Xaa Pro Xbr [Compound 63],56
19,Xbk Val Xaa Pro Xcd [Compound 99],3800
20,Xbi Val Xaa Pro Xcc [Compound 82],11
21,Xau Val Xaa Pro Xbp [Compound 96],1.7
22,Xau Val Xaa Pro Xbp [Compound 73],1.4
23,Xbi Val Xaa Pro Xab [Compound 39],25

row,Substance,IC50 [nM]
1,[N-Methyl-D-Pro]-Val-MeVal-Pro-Pro-NHBn [Compound 5],5
2,Xau Val Xaa Pro Xcc [Compound 90],0.93
3,Xbo Val Xaa Pro Xbn [Compound 46],720
4,Xbf Val Xaa Pro Xab [Compound 34],5
5,Xat Val Xaa Pro Xab [Compound 17],63
6,Xbo Val Xaa Pro Xbp [Compound 95],11
7,Xbk Val Xaa Pro Xcc [Compound 85],9500
8,Xbk Val Xaa Pro Xcc [Compound 84],1200
9,Xau Val Xaa Pro Xcd [Compound 91],0.83
10,Xaw Val Xaa Pro Xbq [Compound 51],46
11,Xbv Val Xaa Pro Xab [Compound 57],25
12,Xbo Val Xaa Pro Xbp [Compound 94],3000
13,Xaw Val Xaa Pro Xbr [Compound 52],340
14,Xbo Val Xaa Pro Xbp [Compound 49],88
15,Xbd Val Xaa Pro Xab [Compound 30],6.1
16,Xcg Val Xaa Pro Xab [Compound 108],7100
17,Xao Val Xaa Pro Xab [Compound 12],370
18,Xbi Val Xaa Pro Xcd [Compound 98],6
19,Xaw Val Xaa Pro Xbp [Compound 48],25
20,"[N,N-Dimethyl-2-ethyl-2-phenylglycyl]-Val-MeVal-Pro-Pro-NHBn×HCl [Compound 4]",1.2
21,Xae Val Xaa Pro Xab [Compound 8],510
22,Xau Val Xaa Pro Xcb [Compound 78],4.3
23,Xce Val Xaa Pro Xab [Compound 105],18

row,Substance,IC50 [nM]
1,Xbf Val Xaa Pro Xab [Compound 43],59
2,Xbs Val Xaa Pro Xbt [Compound 53],5
3,Xbi Val Xaa Pro Xcd [Compound 83],130
4,Xbo Val Xaa Pro Xbn [Compound 47],23
5,Xcf Val Xaa Pro Xab [Compound 106],97
6,Xbk Val Xaa Pro Xab [Compound 40],560
7,Xba Val Xaa Pro Xab [Compound 27],37
8,Xaq Val Xaa Pro Xab [Compound 14],1.5
9,Xba Val Xaa Pro Xcc [Compound 103],110
10,[N-Methyl-L-piperidine-2-carbonyl]-Val-MeVal-Pro-Pro-NHBn [Compound 1],47
11,Xbs Val Xaa Pro Xbt [Compound 60],1.8
12,Xba Val Xaa Pro Xbp [Compound 101],2100
13,Xca Val Xaa Pro Xab [Compound 70],7100
14,Xad Val Xaa Pro Xap [Compound 13],1
15,Xbi Val Xaa Pro Xbx [Compound 75],850
16,Xbw Val Xaa Pro Xab [Compound 59],190
17,Xau Val Xaa Pro Xbx [Compound 74],51
18,Xby Val Xaa Pro Xab [Compound 67],340
19,Xaw Val Xaa Pro Xbx [Compound 66],340
20,Xba Val Xaa Pro Xcb [Compound 92],1500

# System: P388 lymphocytic leukemia (PS system) cell line
# Conditions: National Cancer Institute's P388 (PS system); cited from earlier work
row,Substance,inhibition of growth of P388 cell line
1,Dolastatin 15,markedly inhibits the growth

# System: not given
# Conditions: synthetic Dolastatin 15; cited from earlier work
row,Substance,solubility in aqueous systems
1,Dolastatin 15,poor solubility
